Tests used:
KRas G12D mutant = experiment: Ras GTP Binding Domain Inhibition Assay, KRas G12D mutant; conditions: at 20 μM; for KRas G12D mutant + SOS: % inh.: with SOS; for KRas G12D mutant: % inh.: without SOS
How it was run: (§1)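 Compounds were tested at 20 μM final, or as dilution series for IC50, against nickel-plate-captured His-tagged GTPase proteins for 3 h at room temperature. Sos exchange factor could be present for the last hour. Labelled GTP (100 nM Cy3 or Cy5) was then bound for 45 min, wells were washed, and retained fluorescence was measured.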

[1] = Observation for overt toxicity in D2-mdx mice; type: in vivo; conditions: male D2-mdx mice, 100 mg/kg IP daily for 3 days
Method: Experimental Design: Compound 9 was suspended in 0.5% Hydroxypropyl Methylcellulose (HPMC)/0.1% Tween® 80 to a final concentration of 10 mg/mL. The dosing solutions were prepared prior to the start of the test and were stored in the dark and maintained in frozen aliquots. Doses were thawed prior to administration. Male D2-mdx (JAX Stock No: 013141) mice were sourced from The Jackson Laboratory and housed in solid bottom cages with standard chow and water ad libitum. Dosing was initiated when animals were −3 weeks old. Animals were dosed daily by intraperitoneal (IP) injection at 100 mg/kg or vehicle for 3 days. […] Mice were sacrificed by CO2 euthanasia approximately 6 hours after their day 3 dosing. Heart, diaphragm, quadriceps, tibialis anterior (TA) samples were collected at termination on day 3 and snap frozen. These samples were shipped on dry ice for analysis, and were stored at −80° C.

Smad2 phosphorylation = experiment: Phospho-Smad2 western blot of D2-mdx mouse tissues; type: in vivo; conditions: 100 mg/kg IP daily for 3 days
Description: (§2) The experiment described herein was designed to monitor the effects of Compound 9 on two biomarkers related to fibrosis in D2-mdx mice. The first biomarker is Smad2 phosphorylation, and the second is the levels of serum albumin in the different muscle tissues. Fibrosis causes disruption of the fine transparent tubular sheath which envelops the fibers of skeletal muscles, this can result in various molecules from the blood and interstitial fluid leaking into myofibres. A classic example is serum albumin, which can be identified in tissue sections and considered to be hallmark of myofibre permeability.
(§3) Experimental Design: Compound 9 was suspended in 0.5% Hydroxypropyl Methylcellulose (HPMC)/0.1% Tween® 80 to a final concentration of 10 mg/mL. […]
(§4) Tissue protein extraction: Frozen tissues were placed on ice in prechilled tubes with 30 μL/mg with of ice-cold RIPA buffer+Halt™ Protease & Phosphatase Inhibitor Cocktail. […] Supernatant was removed and protein concentration determined by BCA assay.
(§5) Western blot protocol: Equal amounts of protein (15-50 μg) were separated by SDS-PAGE and transferred to nitrocellulose membranes (Invitrogen by Thermo Fisher Scientific). […] Membranes were blocked with 10% milk and albumin levels were assessed by incubating overnight at 4° C. with albumin antibody (Cell Signaling Technology #4929). […]

serum albumin = experiment: Albumin western blot of D2-mdx mouse tissues; type: in vivo; conditions: D2-mdx mice, 100 mg/kg IP daily for 3 days
Description: as §2, §3, §4, §5

[2] = Observation for overt toxicity in DBA/2J mice; type: in vivo; conditions: male DBA/2J mice, single dose, 100 mg/kg IP
Method: Experimental Design: Compound 9 was suspended in 0.5% Hydroxypropyl Methylcellulose (HPMC)/0.1% Tween® 80 to a final concentration of 10 mg/mL. The dosing solutions were prepared prior to the start of the test. Male DBA/2J mice (Jackson Stock No: 000671) were housed in solid bottom cages with standard chow and water ad libitum. Dosing was initiated when animals were 7-8 weeks old. Mice were dosed at a volume of 10 mL/kg by intraperitoneal (IP) injection at 100 mg/kg or vehicle. […] Blood was collected at 15 min, 30 min, 1 h, 2 h, 4 h, 7 h, 16 h, 24 h by cardiac puncture, mixed gently 8 times and put on ice until centrifuged within 30 minutes of collection. The plasma was transferred to a 96-well plate for analysis of test compound levels.

KRas G12C mutant = experiment: Ras GTP Binding Domain Inhibition Assay, KRas G12C mutant; conditions: at 20 μM; for KRas G12C mutant + SOS: % inh.: with SOS; for KRas G12C mutant: % inh.: without SOS
How it was run: as §1

Rho-A = experiment: Ras GTP Binding Domain Inhibition Assay, Rho-A; conditions: at 20 μM; for Rho-A: % inh.: without SOS
How it was run: as §1

[3] = Assessment of plasma exposure in DBA/2J mice; type: in vivo, mouse; conditions: Group 4: 100 mg/kg PO, Vehicle 2 (Solubilized Lipid)
KRas wild type = experiment: Ras GTP Binding Domain Inhibition Assay, KRas wild type; conditions: at 20 μM; for KRas wild type + SOS: % inh.: with SOS; for KRas wild type: % inh.: without SOS
How it was run: as §1

Smad2/3 phosphorylation = experiment: Phospho-Smad2/3 Inhibition Assay in PANC-1; type: cell-based; conditions: Homo sapiens; 10 μM compound, 3 h; TGF-b1 stimulated PANC-1; western blot; read-out: % inh of Smad2/3 phosphorylation in PANC-1
How it was run: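 Serum-starved cells (0.5% FBS overnight) pretreated 3 h at 37 °C with compound at 10 μM or serial dilutions for IC50, in 0.3% DMSO. TGF-b1 10 ng/ml stimulation: 1 h for Panc-1 (human), 20 min for C2C12 (mouse). Phospho-Smad2 (Ser465/467) and phospho-Smad3 (Ser423/425) measured by western blot of lysates.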

IL-6 = experiment: Mouse IL6 Quantification Assay (LPS-stimulated RAW 264.7); type: cell-based; design: dose or concentration left out as unconfirmed; conditions: RAW264.7, ELISA, read-out: IL-6: % inh.
TNFα = experiment: Mouse TNF Alpha Quantification Assay (LPS-stimulated RAW 264.7); type: cell-based; design: dose or concentration left out as unconfirmed; conditions: RAW264.7, ELISA, read-out: TNFα: % inh.

SMILES	KRas G12D mutant + SOS: % inh. (KRas G12D mutant; Table 7)	KRas G12D mutant + SOS: % inh. (KRas G12D mutant; Table 8)	KRas G12D mutant: % inh. (KRas G12D mutant; Table 7)	KRas G12D mutant: % inh. (KRas G12D mutant; Table 8)	findings of overt toxicity [1]	Smad2 phosphorylation in the diaphragm compared to control vehicle mice (Smad2 phosphorylation)	Smad2 phosphorylation in the heart (Smad2 phosphorylation; D2-mdx mice)	serum albumin levels in the heart (serum albumin)	serum albumin levels in the tibialis anterior and quadricep muscles (serum albumin)	findings of overt toxicity [2]	KRas G12C mutant + SOS: % inh. (KRas G12C mutant)	KRas G12C mutant: % inh. (KRas G12C mutant)	Rho-A + SOS: % inh. (Rho-A; with SOS)	Rho-A: % inh. (Rho-A)	Tmax [3] [h]	KRas wild type + SOS: % inh. (KRas wild type)	KRas wild type: % inh. (KRas wild type)	inhibition at 10 µM (Smad2/3 phosphorylation) [%]	inhibition (IL-6) [%]	inhibition (TNFα) [%]
COCCNc1nc(-c2nccn2C)nc2sc(-c3cccc(OC)c3Cl)c(-c3ccccc3)c12 [Compound 9, 6-(2-Chloro-3-methoxyphenyl)-N-(2-methoxyethyl)-2-(1-methyl-1H-imidazol-2-yl)-5-phenylthieno[2,3-d]pyrimidin-4-amine]	C (C = 46-75% inhibition)	C (C = 46-75% inhibition)	C (C = 46-75% inhibition)	C (C = 46-75% inhibition)	No findings of overt toxicity were observed	inhibition of Smad2 phosphorylation	No changes	No changes	clear decrease	No findings of overt toxicity were observed	D (D = 76-100% inhibition)	B (B = 26-45% inhibition)	B (B = 26-45% inhibition)	B (B = 26-45% inhibition)	4	D (D = 76-100% inhibition)	C (C = 46-75% inhibition)	–	–	–
COc1cccc(-c2sc3nc(-c4nccn4C)nc(N[C@H]4C[C@H](OC)C4)c3c2-c2ccccc2)c1F [Compound 40, 6-(2-Fluoro-3-methoxyphenyl)-N-((1r,3r)-3-methoxycyclobutyl)-2-(1-methyl-1H-imidazol-2-yl)-5-phenylthieno[2,3-d]pyrimidin-4-amine]	D (D = 76-100% inhibition)	D (D = 76-100% inhibition)	C (C = 46-75% inhibition)	C (C = 46-75% inhibition)	–	–	–	–	–	–	D (D = 76-100% inhibition)	C (C = 46-75% inhibition)	–	B (B = 26-45% inhibition)	–	D (D = 76-100% inhibition)	C (C = 46-75% inhibition)	76 to 100	76 to 100	76 to 100

— patent US20240309015A1, “Methods for the Treatment of Fibrotic Disease” (SHY Therapeutics, LLC, priority 2021, published 2024)
